Structures are written as SMILES.

A word on the IC50: it is the concentration at which inhibition is half-maximal. Low readings indicate greater potency, high ones weaker potency.

Common to all, as to format: cell-based
In test [1] the test system is DU-145. As to the kind of experiment: Cell growth inhibition assay, prostate cancer cell line DU-145. Particulars: Homo sapiens, DU-145 prostate cancer cell line. The gist of the method:
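Readout was CellTiter-Glo luminescence after 72–96 h of compound exposure at 37 °C, 5% CO2. Plating density was 3,000 cells/well for DU-145 and HCT116 and 5,000 cells/well for SW626. Controls were 0.1% DMSO wells and medium-only wells.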

Test [2] deals with LNCaP. As to the kind of experiment: Cell growth inhibition assay, prostate cancer cell line LNCaP (medium with 10 ng/mL IL-6). The note with it: Homo sapiens, medium supplemented with 10 ng/mL of IL-6, 10,000 cells/well.
The target of test [3] is T1, STAT3 (Homo sapiens, UniProt P40763).
T1 construct: plasmid pSTAT3-TA-luc), which contains a stably operating STAT3 promoter; endogenous in cells
T1 sequence (P40763 whole entry): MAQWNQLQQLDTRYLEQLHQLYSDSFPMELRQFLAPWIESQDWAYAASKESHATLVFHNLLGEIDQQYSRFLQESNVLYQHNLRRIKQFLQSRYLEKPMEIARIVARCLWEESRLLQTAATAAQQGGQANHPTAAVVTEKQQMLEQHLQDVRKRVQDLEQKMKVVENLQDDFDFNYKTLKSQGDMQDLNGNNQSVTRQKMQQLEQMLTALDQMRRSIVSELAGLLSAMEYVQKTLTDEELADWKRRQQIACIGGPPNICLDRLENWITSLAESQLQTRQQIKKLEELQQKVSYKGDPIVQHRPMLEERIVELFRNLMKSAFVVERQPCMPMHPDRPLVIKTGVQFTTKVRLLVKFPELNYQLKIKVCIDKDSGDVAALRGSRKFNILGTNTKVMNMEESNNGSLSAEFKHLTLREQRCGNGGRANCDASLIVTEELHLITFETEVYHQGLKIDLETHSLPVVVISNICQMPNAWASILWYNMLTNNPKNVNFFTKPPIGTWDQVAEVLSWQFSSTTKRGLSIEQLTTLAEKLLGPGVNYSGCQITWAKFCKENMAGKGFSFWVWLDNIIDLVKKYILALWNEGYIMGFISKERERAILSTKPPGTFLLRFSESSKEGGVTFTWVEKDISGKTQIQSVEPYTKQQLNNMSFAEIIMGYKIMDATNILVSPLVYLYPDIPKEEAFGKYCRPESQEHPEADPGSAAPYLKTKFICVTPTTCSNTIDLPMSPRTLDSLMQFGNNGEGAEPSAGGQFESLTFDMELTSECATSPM
As to the kind of experiment: STAT3 reporter gene assay (luciferase), LNCaP stable cell line (pSTAT3-TA-luc), IL-6 stimulation. The gist of the method:
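LNCaP cells stably carrying pSTAT3-TA-luc, in RPMI1640 with 3% DCC-FBS, were treated with compound and then stimulated with 10 ng/mL IL-6 for 24–48 h at 37 °C. Luciferase activity was measured in lysates. A parallel plate measured viability by CellTiter-Glo, with stimulated 0.1% DMSO wells as the positive control.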
In general terms: A reporter such as luciferase makes a cellular process visible.

In the case of `CS(=O)(=O)Nc1cc2cc(C(=O)Nc3cc(Cl)cc(C4(c5ccc(Cl)cc5)CC4)c3)sc2cc1Cl` [Example 433, 6-chloro-N-(3-chloro-5-(1-(4-chlorophenyl)cyclopropyl)phenyl)-5-(methylsulfonamido)benzo[b]thiophene-2-carboxamide], the figures for the IC50 in test [1], in test [2] and in test [3] were 0.006 µM, 0.01 µM and 0.013 µM, respectively.

On to `CN(c1ccc(Cl)cc1)c1cc(Cl)cc(NC(=O)c2cc3cc(NS(C)(=O)=O)c(Cl)cc3s2)c1` [Example 441, 6-chloro-N-(3-chloro-5-((4-chlorophenyl)(methyl)amino)phenyl)-5-(methylsulfonamido)benzo[b]thiophene-2-carboxamide], for which the IC50 in test [1] came to 0.026 µM; in test [2], 0.012 µM; in test [3], 0.009 µM.

For the compound `CN(c1cc(Cl)cc(NC(=O)c2cc3cc(NS(C)(=O)=O)c(Cl)cc3s2)c1)c1ccc(F)cc1F` [Example 442, 6-chloro-N-(3-chloro-5-((2,4-difluorophenyl)(methyl)amino)phenyl)-5-(methylsulfonamido)benzo[b]thiophene-2-carboxamide], the IC50 in test [1] was 0.013 µM; in test [2], 0.036 µM; in test [3] it was 0.021 µM.

In the case of `CC(C)Oc1cc(OC(F)(F)F)cc(N(C)c2cc(Cl)cc(NC(=O)c3cc4cc(NS(C)(=O)=O)ccc4s3)c2)c1` [Example 443, N-(3-chloro-5-((3-isopropoxy-5-(trifluoromethoxy)phenyl)(methyl)amino)phenyl)-5-(methylsulfonamido)benzo[b]thiophene-2-carboxamide], the IC50 in test [1] amounted to 0.02 µM; in test [2], 0.039 µM; in test [3], 0.065 µM.

Turning to `CS(=O)(=O)Nc1ccc2sc(C(=O)Nc3cc(Cl)cc(Oc4ccc(F)cc4)c3)cc2c1` [Example 446, N-(3-chloro-5-(4-fluorophenoxy)phenyl)-5-(methylsulfonamido)benzo[b]thiophene-2-carboxamide], the IC50 in test [1] was determined as 0.065 µM; in test [2] it was 0.13 µM; in test [3], 0.096 µM.

Consider `COc1ccc(Oc2cc(Cl)cc(NC(=O)c3cc4cc(NS(C)(=O)=O)ccc4s3)c2)cc1` [Example 447, N-(3-chloro-5-(4-methoxyphenoxy)phenyl)-5-(methylsulfonamido)benzo[b]thiophene-2-carboxamide], for which the IC50 was 0.14 µM in test [1], 0.49 µM in test [2] and 0.27 µM in test [3].

With `CS(=O)(=O)Nc1ccc2sc(C(=O)Nc3cc(Cl)cc(Oc4cc(F)ccc4F)c3)cc2c1` [Example 448, N-(3-chloro-5-(2,5-difluorophenoxy)phenyl)-5-(methylsulfonamido)benzo[b]thiophene-2-carboxamide], the values for the half-maximal inhibitory concentration (IC50) in test [1], in test [2] and in test [3] were 0.16 µM, 0.35 µM and 0.23 µM, respectively.

Turning to `CS(=O)(=O)Nc1cc2cc(C(=O)Nc3cc(Cl)cc(Oc4ccc(Cl)cc4)c3)sc2cc1Cl` [Example 449, 6-chloro-N-(3-chloro-5-(4-chlorophenoxy)phenyl)-5-(methylsulfonamido)benzo[b]thiophene-2-carboxamide], the IC50 was determined as 0.01 µM in test [1], 0.022 µM in test [2] and 0.024 µM in test [3].

Regarding `CS(=O)(=O)Nc1ccc2sc(C(=O)Nc3cc(Cl)cc(Oc4cccc(OC(F)(F)F)c4)c3)cc2c1` [Example 450, N-(3-chloro-5-(3-(trifluoromethoxy)phenoxy)phenyl)-5-(methylsulfonamido)benzo[b]thiophene-2-carboxamide], the IC50 stood at 0.06 µM in test [1], 0.099 µM in test [2] and 0.1 µM in test [3].

As for `CS(=O)(=O)Nc1ccc2sc(C(=O)Nc3cc(Cl)cc(Oc4ccc(C#N)cc4)c3)cc2c1` [Example 451, N-(3-chloro-5-(4-cyanophenoxy)phenyl)-5-(methylsulfonamido)benzo[b]thiophene-2-carboxamide], the half-inhibitory concentration (IC50) in test [1] is 0.19 µM; in test [2] it was 0.51 µM; in test [3], 0.14 µM.

Consider `CC(C)Oc1cc(Oc2cc(Cl)cc(NC(=O)c3cc4cc(NS(C)(=O)=O)ccc4s3)c2)cc(OC(F)(F)F)c1` [Example 452, N-(3-chloro-5-(3-isopropoxy-5-(trifluoromethoxy)phenoxy)phenyl)-5-(methylsulfonamido)benzo[b]thiophene-2-carboxamide], for which the values for the IC50 in test [1], in test [2] and in test [3] were 0.027 µM, 0.33 µM and 0.079 µM, respectively.

Regarding `CS(=O)(=O)Nc1cc2cc(C(=O)Nc3cc(Cl)cc(Oc4ccc(Cl)cc4)c3)sc2cc1Br` [Example 453, 6-bromo-N-(3-chloro-5-(4-chlorophenoxy)phenyl)-5-(methylsulfonamido)benzo[b]thiophene-2-carboxamide], the half-inhibitory concentration (IC50) came out at 0.018 µM in test [1], 0.35 µM in test [2] and 0.022 µM in test [3].

With `CS(=O)(=O)Nc1ccc2sc(C(=O)Nc3cc(Cl)cc(Oc4ccc(OC(F)(F)F)cc4)c3)cc2c1` [Example 454, N-(3-chloro-5-(4-(trifluoromethoxy)phenoxy)phenyl)-5-(methylsulfonamido)benzo[b]thiophene-2-carboxamide], the IC50 in test [1] was determined as 0.059 µM; in test [2], 0.83 µM; in test [3], 0.12 µM.

For the compound `CS(=O)(=O)Nc1ccc2sc(C(=O)Nc3cc(Cl)cc(Oc4cccc(C(F)(F)F)c4)c3)cc2c1` [Example 455, N-(3-chloro-5-(3-(trifluoromethyl)phenoxy)phenyl)-5-(methylsulfonamido)benzo[b]thiophene-2-carboxamide], the IC50 was 0.19 µM in test [1], 0.22 µM in test [2] and 0.19 µM in test [3].

`CS(=O)(=O)Nc1ccc2sc(C(=O)Nc3cc(Cl)cc(Oc4cccc(Cl)c4)c3)cc2c1` [Example 456, N-(3-chloro-5-(3-chlorophenoxy)phenyl)-5-(methylsulfonamido)benzo[b]thiophene-2-carboxamide]: the IC50 was 0.25 µM in test [1], 0.3 µM in test [2] and 0.19 µM in test [3].

For `COc1cccc(Oc2cc(Cl)cc(NC(=O)c3cc4cc(NS(C)(=O)=O)ccc4s3)c2)c1` [Example 457, N-(3-chloro-5-(3-methoxyphenoxy)phenyl)-5-(methylsulfonamido)benzo[b]thiophene-2-carboxamide], the half-inhibitory concentration (IC50) in test [1] was 0.44 µM; in test [2], 0.37 µM; in test [3], 0.28 µM.

With `CS(=O)(=O)Nc1ccc2sc(C(=O)Nc3cc(Cl)cc(Oc4cc(Cl)cc(C#N)c4)c3)cc2c1` [Example 458, N-(3-chloro-5-(3-chloro-5-cyanophenoxy)phenyl)-5-(methylsulfonamido)benzo[b]thiophene-2-carboxamide], the results for the IC50 in test [1], in test [2] and in test [3] were 0.17 µM, 0.33 µM and 0.25 µM, respectively.

For the compound `CS(=O)(=O)Nc1ccc2sc(C(=O)Nc3cc(Cl)cc(Oc4cccc(C#N)c4)c3)cc2c1` [Example 459, N-(3-chloro-5-(3-cyanophenoxy)phenyl)-5-(methylsulfonamido)benzo[b]thiophene-2-carboxamide], the figures for the IC50 in test [1], in test [2] and in test [3] were 0.59 µM, 0.79 µM and 0.36 µM, respectively.

Regarding `CS(=O)(=O)Nc1ccc2sc(C(=O)Nc3cc(Cl)cc(Oc4ccc(F)c(F)c4)c3)cc2c1` [Example 460, N-(3-chloro-5-(3,4-difluorophenoxy)phenyl)-5-(methylsulfonamido)benzo[b]thiophene-2-carboxamide], the 50% inhibitory concentration (IC50) turned out to be 0.13 µM in test [1], 0.23 µM in test [2] and 0.15 µM in test [3].

For the origin of these results see patent US10562912B2 (C&C Research Laboratories, priority 2013, dated 2020).
